Laboratory results from ChEMBL document CHEMBL3994576, “Targeting Alzheimer's disease by investigating previously unexplored chemical space surrounding the cholinesterase inhibitor donepezil” (Eur J Med Chem, 2017).

Assays:
Acetylcholinesterase = Acetylcholinesterase (Electrophorus electricus, UniProt O42275); assay: Inhibition of electric eel AChE using acetylthiocholine iodide as substrate by Ellman's method
SH-SY5Y = assay: cells; format: ADME, cell-based; settings: Homo sapiens, 72 h;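 further: cytotoxicity read out with an SRB assay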
[1] = Elimination half life in human; format: ADME; settings: read-out: beta t1/2
clinical = settings: human, in vivo, po

Sequence of Acetylcholinesterase (O42275 whole entry): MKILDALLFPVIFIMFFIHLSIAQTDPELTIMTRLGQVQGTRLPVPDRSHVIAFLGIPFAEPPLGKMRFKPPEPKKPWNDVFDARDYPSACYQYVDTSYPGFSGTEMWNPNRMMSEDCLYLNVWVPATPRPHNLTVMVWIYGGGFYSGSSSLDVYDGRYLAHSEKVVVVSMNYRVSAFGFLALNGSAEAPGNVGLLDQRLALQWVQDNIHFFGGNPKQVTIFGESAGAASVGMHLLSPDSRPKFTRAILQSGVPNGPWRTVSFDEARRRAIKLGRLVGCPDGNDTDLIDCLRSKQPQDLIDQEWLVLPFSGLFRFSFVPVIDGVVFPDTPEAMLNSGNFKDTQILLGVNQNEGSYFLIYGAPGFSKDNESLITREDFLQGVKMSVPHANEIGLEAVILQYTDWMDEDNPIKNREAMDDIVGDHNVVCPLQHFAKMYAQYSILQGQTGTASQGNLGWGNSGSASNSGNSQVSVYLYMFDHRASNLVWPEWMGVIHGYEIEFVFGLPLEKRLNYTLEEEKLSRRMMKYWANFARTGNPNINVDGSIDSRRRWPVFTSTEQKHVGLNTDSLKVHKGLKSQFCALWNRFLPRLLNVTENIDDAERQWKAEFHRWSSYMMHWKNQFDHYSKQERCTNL

Row | SMILES | IC50 (Acetylcholinesterase) [µM] | IC50 (SH-SY5Y) [µM] | half-life [1] [h] | bioavailability (clinical) [%]
1 | COc1cc2c(cc1OC)C(=O)C(C(=O)OCC1CCN(Cc3ccccc3)C1)C2 (stereo not given) | > 10 | – | – | –
2 | COc1cc2c(cc1OC)C(=O)/C(=C/C1CCN(Cc3ccccc3)CC1)C2 | 0.42 | 3.99 | – | –
3 | COc1cc2c(cc1OC)C(=O)C(CC1CN(Cc3ccccc3)C1)C2 (stereo not given) | 1.13 | 8.01 | – | –
4 | COc1cc2c(cc1OC)C(=O)/C(=C/C1CCCCN1Cc1ccccc1)C2 (stereo not given) | 0.75 | – | – | –
5 | COc1cc2c(cc1OC)C(=O)C(C(=O)C1CCN(Cc3ccccc3)CC1)C2 (stereo not given) | 0.66 | 63.9 | – | –
6 | COc1cc2c(cc1OC)C(=O)C(CC1CCN(Cc3ccccc3)CC1)C2 (stereo not given) [DONEPEZIL] | – | 15.5 | 70 to 80 | 100
7 | COc1cc2c(cc1OC)C(=O)/C(=C/C1CCCN1Cc1ccccc1)C2 (stereo not given) | > 10 | 19 | – | –
8 | COc1cc2c(cc1OC)C(=O)/C(=C/C1CN1Cc1ccccc1)C2 (stereo not given) | > 10 | – | – | –
9 | COc1cc2c(cc1OC)C(=O)/C(=C/C1CN(Cc3ccccc3)C1)C2 | 0.7 | 1.26 | – | –
10 | COc1cc2c(cc1OC)C(=O)C(C(=O)OCC1CN(Cc3ccccc3)C1)C2 (stereo not given) | > 10 | > 100 | – | –
11 | COc1cc2c(cc1OC)C(=O)C(C(=O)OCC1CCCCN1Cc1ccccc1)C2 (stereo not given) | > 10 | – | – | –
12 | COc1cc2c(cc1OC)C(=O)C(C(=O)OCC1CN1Cc1ccccc1)C2 (stereo not given) | > 10 | – | – | –
13 | COc1cc2c(cc1OC)C(=O)C(C[C@@H]1CCCN1Cc1ccccc1)C2 (stereo not given in full) | 3.16 | – | – | –
14 | COc1cc2c(cc1OC)C(=O)/C(=C/C1CCCN(Cc3ccccc3)C1)C2 (stereo not given) | 1.18 | 4.72 | – | –
15 | COc1cc2c(cc1OC)C(=O)/C(=C/C1CCN1Cc1ccccc1)C2 (stereo not given) | > 10 | – | – | –
16 | COc1cc2c(cc1OC)C(=O)C(C(=O)OCC1CCCN(Cc3ccccc3)C1)C2 (stereo not given) | > 10 | – | – | –
17 | COc1cc2c(cc1OC)C(=O)C(CC1CCN1Cc1ccccc1)C2 (stereo not given) | > 10 | 58.5 | – | –
18 | COc1cc2c(cc1OC)C(=O)C(CC1CCCN(Cc3ccccc3)C1)C2 (stereo not given) | 0.51 | 66.7 | – | –
19 | COc1cc2c(cc1OC)C(=O)C(CC1CCN(Cc3ccccc3)C1)C2 (stereo not given) | 1.74 | – | – | –
20 | COc1cc2c(cc1OC)C(=O)C(C(=O)OCC1CCN(Cc3ccccc3)CC1)C2 (stereo not given) | > 10 | – | – | –
21 | COc1cc2c(cc1OC)C(=O)C(CC1CCCCN1Cc1ccccc1)C2 (stereo not given) | 0.46 | > 100 | – | –
22 | COc1cc2c(cc1OC)C(=O)C(C(=O)OCC1CCN1Cc1ccccc1)C2 (stereo not given) | > 10 | – | – | –
23 | COc1cc2c(cc1OC)C(=O)C(C(=O)OC1CCN(Cc3ccccc3)CC1)C2 (stereo not given) | 3.03 | > 100 | – | –
24 | COc1cc2c(cc1OC)C(=O)/C(=C/C1CCN(Cc3ccccc3)C1)C2 (stereo not given) | 0.52 | 6.59 | – | –
25 | COc1cc2c(cc1OC)C(=O)C(C(=O)OCC1CCCN1Cc1ccccc1)C2 (stereo not given) | > 10 | – | – | –
26 | COc1cc2c(cc1OC)C(=O)C(OC(=O)C1CCN(Cc3ccccc3)CC1)C2 (stereo not given) | – | > 100 | – | –
